Reference: patent EP4729518A1, “CRYSTAL FORM OF METHIONINE ADENOSYLTRANSFERASE 2A HETEROCYCLIC INHIBITOR, PREPARATION METHOD THEREFOR, AND USE THEREOF” (Nanjing Chia Tai Tianqing Pharmaceutical Co., Ltd., priority 2023, dated 2024)

How the values were obtained:
[1] = Heating experiment via DSC followed by XRD; format: physicochemical
Description: The heated samples were then collected and subjected to XRD analysis. Table 27: Summary of heating test results for various crystal forms

[2] = Solid state stability of crystal forms (XRD and HPLC); format: physicochemical
Experimental: Samples of the crystal forms B, H, and L were placed under the conditions of 25 °C/60% RH and 40 °C/75% RH for 17 days, and then the physicochemical stability of the samples was tested using XRD and HPLC. Table 24: Summary of solid state stability evaluation of crystal forms

Cn1cc2cc(-c3nn4ccc(C5CC5)nc4c(-c4ccc(OC(F)F)cc4)c3=O)ccc2n1 [Crystal form I, 2-cyclopropyl-9-[4-(difluoromethoxy)phenyl]-7-(2-methyl-2H-indazol-5-yl)-8H-pyrimido[1,2-b]pyridazin-8-one]
After heating (crystal form) ([1]; Heating temperature 150 °C): Crystal form A

Cn1cc2cc(-c3nn4ccc(C5CC5)nc4c(-c4ccc(OC(F)F)cc4)c3=O)ccc2n1 [Crystal form M, 2-cyclopropyl-9-[4-(difluoromethoxy)phenyl]-7-(2-methyl-2H-indazol-5-yl)-8H-pyrimido[1,2-b]pyridazin-8-one]
After heating (crystal form) ([1]; Heating temperature 150 °C): Crystal form A

Cn1cc2cc(-c3nn4ccc(C5CC5)nc4c(-c4ccc(OC(F)F)cc4)c3=O)ccc2n1 [Crystal form P, 2-cyclopropyl-9-[4-(difluoromethoxy)phenyl]-7-(2-methyl-2H-indazol-5-yl)-8H-pyrimido[1,2-b]pyridazin-8-one]
After heating (crystal form) ([1]; Heating temperature 150 °C): Crystal form A

Cn1cc2cc(-c3nn4ccc(C5CC5)nc4c(-c4ccc(OC(F)F)cc4)c3=O)ccc2n1 [Crystal form B, 2-cyclopropyl-9-[4-(difluoromethoxy)phenyl]-7-(2-methyl-2H-indazol-5-yl)-8H-pyrimido[1,2-b]pyridazin-8-one]
After heating (crystal form) ([1]; Heating temperature 250 °C): Crystal form A | Crystal form change ([2]; 0 day): No | Purity ([2]; 0 day): 98.69% | change in crystal form or purity ([2]; 25 °C/60% RH for 17 days): no change in either crystal form or purity | Crystal form change ([2]; 25 °C/60% RH/17 days): No | Purity ([2]; 25 °C/60% RH/17 days): 98.69% | change in crystal form or purity ([2]; 40 °C/75% RH for 17 days): no change in either crystal form or purity | Crystal form change ([2]; 40 °C/75% RH/17 days): No | Purity ([2]; 40 °C/75% RH/17 days): 98.68%

Cn1cc2cc(-c3nn4ccc(C5CC5)nc4c(-c4ccc(OC(F)F)cc4)c3=O)ccc2n1 [Crystal form N, 2-cyclopropyl-9-[4-(difluoromethoxy)phenyl]-7-(2-methyl-2H-indazol-5-yl)-8H-pyrimido[1,2-b]pyridazin-8-one]
After heating (crystal form) ([1]; Heating temperature 100 °C): Crystal form A

Cn1cc2cc(-c3nn4ccc(C5CC5)nc4c(-c4ccc(OC(F)F)cc4)c3=O)ccc2n1 [Crystal form H, 2-cyclopropyl-9-[4-(difluoromethoxy)phenyl]-7-(2-methyl-2H-indazol-5-yl)-8H-pyrimido[1,2-b]pyridazin-8-one]
After heating (crystal form) ([1]; Heating temperature 250 °C): Crystal form A | Crystal form change ([2]; 0 day): No | Purity ([2]; 0 day): 98.62% | change in crystal form or purity ([2]; 25 °C/60% RH for 17 days): no change in purity, but had a decrease in crystallinity | Crystal form change ([2]; 25 °C/60% RH/17 days): No change in crystal form was observed, but the crystallinity decreased | Purity ([2]; 25 °C/60% RH/17 days): 98.59% | change in crystal form or purity ([2]; 40 °C/75% RH for 17 days): no change in either crystal form or purity | Crystal form change ([2]; 40 °C/75% RH/17 days): No | Purity ([2]; 40 °C/75% RH/17 days): 98.59%

Cn1cc2cc(-c3nn4ccc(C5CC5)nc4c(-c4ccc(OC(F)F)cc4)c3=O)ccc2n1 [Crystal form Q, 2-cyclopropyl-9-[4-(difluoromethoxy)phenyl]-7-(2-methyl-2H-indazol-5-yl)-8H-pyrimido[1,2-b]pyridazin-8-one]
After heating (crystal form) ([1]; Heating temperature 130 °C): Crystal form A

Cn1cc2cc(-c3nn4ccc(C5CC5)nc4c(-c4ccc(OC(F)F)cc4)c3=O)ccc2n1 [Crystal form O, 2-cyclopropyl-9-[4-(difluoromethoxy)phenyl]-7-(2-methyl-2H-indazol-5-yl)-8H-pyrimido[1,2-b]pyridazin-8-one]
After heating (crystal form) ([1]; Heating temperature 150 °C): Crystal form A

Cn1cc2cc(-c3nn4ccc(C5CC5)nc4c(-c4ccc(OC(F)F)cc4)c3=O)ccc2n1 [Crystal form A, 2-cyclopropyl-9-[4-(difluoromethoxy)phenyl]-7-(2-methyl-2H-indazol-5-yl)-8H-pyrimido[1,2-b]pyridazin-8-one]
stability on heating ([1]; after heating (>100 °C)): high-temperature stable crystal form

Cn1cc2cc(-c3nn4ccc(C5CC5)nc4c(-c4ccc(OC(F)F)cc4)c3=O)ccc2n1 [Crystal form D, 2-cyclopropyl-9-[4-(difluoromethoxy)phenyl]-7-(2-methyl-2H-indazol-5-yl)-8H-pyrimido[1,2-b]pyridazin-8-one]
After heating (crystal form) ([1]; Heating temperature 150 °C): Crystal forms A + H + L
